Laboratory results from PubChem BioAssay (NCI).
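A five-concentration, 48-hour dose response in 96-well plates underlies each endpoint, interpolated linearly between surrounding concentrations. The concentration for 50% growth inhibition is given as GI50. Definition used: TGI = concentration required for complete inhibition of growth.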

Experiments:
Test in all cases: inhibition of tumour cell growth, NCI panel, 48 h
786-0 renal = system: 786-0 renal
CAKI-1 renal = system: CAKI-1 renal
CCRF-CEM leukemia = system: CCRF-CEM leukemia
HCT-116 colon = system: HCT-116 colon
NCI-H522 lung = system: NCI-H522 lung
OVCAR-3 ovarian = system: OVCAR-3 ovarian
OVCAR-8 ovarian = system: OVCAR-8 ovarian
SF-268 CNS = system: SF-268 CNS
UACC-257 melanoma = system: UACC-257 melanoma
NCI/ADR-RES ovarian = system: NCI/ADR-RES ovarian

Structure (SMILES) | TGI (786-0 renal) [µM] | TGI (CAKI-1 renal) [µM] | TGI (CCRF-CEM leukemia) [µM] | TGI (HCT-116 colon) [µM] | TGI (NCI-H522 lung) [µM] | TGI (OVCAR-3 ovarian) [µM] | TGI (OVCAR-8 ovarian) [µM] | TGI (SF-268 CNS) [µM] | TGI (UACC-257 melanoma) [µM] | GI50 (786-0 renal) [µM] | GI50 (CCRF-CEM leukemia) [µM] | GI50 (HCT-116 colon) [µM] | GI50 (NCI-H522 lung) [µM] | GI50 (NCI/ADR-RES ovarian) [µM] | TGI (NCI/ADR-RES ovarian) [µM] | GI50 (OVCAR-3 ovarian) [µM] | GI50 (OVCAR-8 ovarian) [µM] | GI50 (SF-268 CNS) [µM] | GI50 (UACC-257 melanoma) [µM] | GI50 (CAKI-1 renal) [µM]
COC(=O)c1ccccc1N(C(=O)c1ccccc1)c1ccccc1C | > 100 | > 100 | 83.5 | > 100 | 86.1 | > 100 | > 100 | > 100 | > 100 | – | – | – | – | – | – | – | – | – | – | –
C=C1C(=O)O[C@H]2[C@H]1CC/C(COC(=O)NCc1c[nH]c3ccccc13)=C\CC[C@@]1(C)O[C@@H]21 | 3.93 | – | 8.27 | 3.3 | 2.58 | 4.57 | 6.99 | 22.6 | 15.9 | 1.78 | 1.48 | 1.53 | 1.23 | 6.4 | 23.1 | 1.71 | 2.2 | 10.4 | 4.25 | –
C=C(CO)CC(O)c1cc(OC)ccc1OC (stereo unspecified) | > 100 | > 100 | > 100 | – | > 100 | > 100 | > 100 | > 100 | > 100 | – | – | – | – | – | – | – | – | – | – | –
CCCCCOCC(O)CO (stereo unspecified) | > 100 | > 100 | – | > 100 | – | > 100 | > 100 | > 100 | > 100 | – | – | – | – | – | – | – | – | – | – | –
O=C(O)C[C@@H](Cl)[C@H](NC(=O)OCc1ccccc1)C(=O)O | > 100 | > 100 | > 100 | > 100 | > 100 | > 100 | > 100 | > 100 | > 100 | – | – | – | – | – | – | – | – | – | – | –
CC(C)C12Cc3c(ccc4ccccc34)OC1(C)Oc1ccc3ccccc3c1C2 (stereo unspecified) | > 100 | > 100 | > 100 | > 100 | > 100 | > 100 | > 100 | > 100 | – | – | – | – | – | – | – | – | – | – | – | –
CCC(=O)N1C(=O)OCC1C(C)C (stereo unspecified) | > 100 | > 100 | > 100 | > 100 | – | > 100 | > 100 | > 100 | > 100 | – | – | – | – | – | – | – | – | – | – | –
CC(C)N(O)C(=N)c1ccccc1 | > 100 | > 100 | – | > 100 | > 100 | – | > 100 | > 100 | > 100 | – | – | – | – | – | – | – | – | – | – | –
CCCCCCCCCCCCCCCC1=NCCN1 | 3.32 | 3.58 | – | – | – | 4.02 | 6.92 | – | 9.55 | 1.84 | – | – | – | 2.16 | 5.09 | 2.01 | 2.67 | – | 3.25 | 1.67
C=C(CN1CCN(c2ccc(C(F)(F)F)cc2)CC1)c1ccc(C(=O)Nc2ccccc2N)cc1 | > 100 | 44 | – | > 100 | > 100 | > 100 | > 100 | > 100 | > 100 | 2.85 | – | 11.4 | 1.85 | 3.37 | > 100 | 12 | 6.95 | 6.78 | 2.39 | 6.08
BrC(Br)=C1C(=C(Br)Br)C(Br)C1Br (stereo unspecified) | 0.882 | 0.898 | 1.6 | 1.1 | 0.299 | 2.15 | 5.46 | 1.51 | 5.3 | – | – | – | – | – | – | – | – | – | – | –
CCN1CCC(Nc2ccnc3cc(Cl)ccc23)CC1 | > 100 | > 100 | > 100 | > 100 | – | > 100 | > 100 | > 100 | 32.3 | 32.4 | 36.9 | 8.82 | – | 44.8 | > 100 | 24.8 | 34.8 | 23.6 | 17 | 21.5
N.N.N.N.N.NC(=O)[O-].[Co+3].[I-] | > 100 | – | > 100 | > 100 | > 100 | > 100 | > 100 | > 100 | > 100 | > 100 | > 100 | > 100 | > 100 | – | – | > 100 | > 100 | > 100 | > 100 | –
CO[C@@H]1C=C[C@@]23c4cc5c(cc4CN(C[C@@H]2O)[C@H]3C1)OCO5 | > 100 | 49.1 | 47.7 | – | 50.7 | > 100 | > 100 | > 100 | > 100 | – | – | – | – | – | – | – | – | – | – | –
CN1CN(C2OC(CO)C(O)C2O)c2nc(N)[nH]c(=O)c21 (stereo unspecified) | > 100 | > 100 | – | > 100 | 38.5 | > 100 | > 100 | > 100 | > 100 | – | – | – | – | – | – | – | – | – | – | –
CC(=O)OC1CCC2(C)C(CCC3C2CC(=O)C2(C)C3CC(N3CC3)C2C(C)=O)C1 (stereo unspecified) | 64.4 | 34.6 | – | > 100 | 29.8 | 97.3 | 46.7 | 27.1 | 32.5 | – | – | – | – | – | 94.2 | – | – | – | – | –
N#CC(C(=O)C(=O)Nc1ccccc1)c1ccccc1 (stereo unspecified) | > 100 | > 100 | > 100 | > 100 | > 100 | > 100 | – | > 100 | > 100 | – | – | – | – | – | – | – | – | – | – | –
COC(OC)c1cc2c(cc1C=O)OCO2 | > 100 | > 100 | > 100 | > 100 | > 100 | > 100 | > 100 | > 100 | > 100 | – | – | – | – | – | – | – | – | – | – | –
NCCc1ccc(S(=O)(=O)F)cc1 | > 100 | > 100 | – | > 100 | > 100 | 78.1 | > 100 | > 100 | > 100 | 58.2 | – | 53.7 | 73.4 | > 100 | > 100 | 31.1 | > 100 | > 100 | > 100 | 30.3
O=c1c2ccc(S(=O)(=O)c3ccc4c(=O)n5c6ccccc6nc5c5cccc3c45)c3cccc(c32)c2nc3ccccc3n12 | > 100 | > 100 | – | > 100 | > 100 | > 100 | > 100 | > 100 | > 100 | – | – | – | – | – | > 100 | – | – | – | – | –
